Source: ChEMBL document CHEMBL4627394, “A Grand Challenge. 3. Unbiased Phenotypic Function of Metabolites from Australia Plants Gloriosa superba and Alangium villosum against Parkinson's Disease” (J Nat Prod, 2020)
Calls of active or inactive are those of the source. The calls are words filed in the database; no cut-off is given here.

How the values were obtained:
[1] = Cytotoxicity against Parkinson's disease patient derived human ONS cells assessed as effect on nucleus morphology parameters at 10 uM after 24 hrs by DAPI staining based fluorescence assay
[2] = Cytotoxicity against Parkinson's disease patient derived human ONS cells assessed as effect on cell morphology parameters at 10 uM after 24 hrs by DAPI staining based fluorescence assay
Homo sapiens = organism: Homo sapiens; assay: Effect on early endosome parameters in Parkinson's disease patient derived human ONS cells at 10 uM after 24 hrs by EEA1 staining based fluorescence assay; format: functional

Q: With `COc1cc2c(c(OC)c1O)-c1ccc(OC)c(=O)cc1[C@@H](NC(C)=O)CC2` [2-DESMETHYLCOLCHICIN] as the compound, how does the Activity [1] read?
A: Non-Toxic

Q: And the Activity [2]?
A: Non-Toxic

Q: What does the source list for `COc1cc2c(c(OC)c1OC)-c1ccc(OC)c(=O)cc1[C@@H](NC(C)=O)CC2` [COLCHICINE]?
A: Activity [1]: Non-Toxic; Activity [2]: Non-Toxic

Q: Which Activity [1] does the source give for `CC[C@H]1C[N@+]2(O)CCc3cc(OC)c(OC)cc3[C@@H]2C[C@@H]1C[C@@H]1NCCc2c1[nH]c1ccc(O)cc21.O=C(O)C(F)(F)F.O=C([O-])C(F)(F)F` here?
A: Non-Toxic

Q: What about the Activity [2] of the same compound?
A: Non-Toxic

Q: What about the Activity (Homo sapiens) of the same compound?
A: Active

Q: Which results are given for `CC[C@H]1CN2CCc3cc(O)c(OC)cc3[C@@H]2C[C@@H]1C[C@H]1NCCc2c1[nH]c1ccccc21.O=C(O)C(F)(F)F.O=C(O)C(F)(F)F`?
A: Activity [1]: Non-Toxic; Activity [2]: Non-Toxic; Activity (Homo sapiens): Active

Q: Which Activity [1] does the source give for `CC[C@H]1CN2CCc3cc(OC)c(OC)cc3[C@@H]2C[C@@H]1C[C@H]1NCCc2c1[nH]c1ccc(O)cc21.O=C(O)C(F)(F)F.O=C(O)C(F)(F)F` here?
A: Non-Toxic

Q: What about the Activity [2] of the same compound?
A: Non-Toxic

Q: What about the Activity (Homo sapiens) of the same compound?
A: Active

Q: For `COC1=C[C@@H]2C3=C([C@@H]2C1=O)[C@@H](NC=O)CCc1cc(OC)c(OC)c(OC)c13`, which Activity [1] is on record?
A: Non-Toxic

Q: What about the Activity [2] of the same compound?
A: Non-Toxic

Q: Which Activity [1] does the source give for `COc1c2c(cc3c1-c1ccc(OC)c(=O)cc1[C@@H](NC(C)=O)CC3)OCO2` here?
A: Non-Toxic

Q: What about the Activity [2] of the same compound?
A: Non-Toxic

Q: Which Activity [1] does the source give for `COC1=C[C@@H]2C3=C([C@@H]2C1=O)[C@@H](NC(C)=O)CCc1cc(O[C@@H]2O[C@H](CO)[C@@H](O)[C@H](O)[C@H]2O)c(O)c(OC)c13` here?
A: Non-Toxic

Q: And the Activity [2]?
A: Non-Toxic

Q: Which results are given for `CC[C@H]1CN2CCc3cc(O)c(OC)cc3[C@@H]2C[C@@H]1C[C@@H]1NCCc2c1[nH]c1ccc(O)cc21.O=C(O)C(F)(F)F.O=C(O)C(F)(F)F`?
A: Activity [1]: Non-Toxic; Activity [2]: Non-Toxic; Activity (Homo sapiens): Active

Q: With `COc1cc2c(c(OC)c1OC)-c1ccc(OC)c(=O)cc1[C@@H](NC=O)CC2` as the compound, how does the Activity [1] read?
A: Non-Toxic

Q: What about the Activity [2] of the same compound?
A: Non-Toxic

Q: Which Activity [1] does the source give for `COC1=C[C@@H]2C3=C([C@@H]2C1=O)[C@@H](NC=O)CCc1cc(OC)c(O[C@@H]2O[C@H](CO)[C@@H](O)[C@H](O)[C@H]2O)c(OC)c13` here?
A: Non-Toxic

Q: What about the Activity [2] of the same compound?
A: Non-Toxic

Q: With `CC[C@H]1CN2CCc3cc(O)c(OC)cc3[C@@H]2C[C@@H]1C[C@H]1NCCc2c1[nH]c1ccc(O)cc21.O=C(O)C(F)(F)F.O=C(O)C(F)(F)F` as the compound, how does the Activity [1] read?
A: Non-Toxic

Q: And the Activity [2]?
A: Non-Toxic

Q: What about the Activity (Homo sapiens) of the same compound?
A: Active

Q: Which Activity [1] does the source give for `CC[C@H]1C[N@+]2(O)CCc3cc(O)c(OC)cc3[C@@H]2C[C@@H]1C[C@@H]1NCCc2c1[nH]c1ccc(O)cc21.O=C(O)C(F)(F)F.O=C([O-])C(F)(F)F` here?
A: Non-Toxic

Q: What about the Activity [2] of the same compound?
A: Non-Toxic

Q: What about the Activity (Homo sapiens) of the same compound?
A: Active

Q: For `COC1=C[C@@H]2C3=C([C@@H]2C1=O)[C@@H](NC(C)=O)CCc1cc(OC)c(O)c(OC)c13`, which Activity [1] is on record?
A: Non-Toxic

Q: And the Activity [2]?
A: Non-Toxic

Q: With `COC1=C[C@@H]2C3=C([C@@H]2C1=O)[C@@H](NC=O)CCc1cc(OC)c(O)c(OC)c13` as the compound, how does the Activity [1] read?
A: Non-Toxic

Q: And the Activity [2]?
A: Non-Toxic

Q: Which Activity [1] does the source give for `COc1cc2c(c(OC)c1O)-c1ccc(OC)c(=O)cc1[C@@H](NC=O)CC2` here?
A: Non-Toxic

Q: And the Activity [2]?
A: Non-Toxic

Q: With `CC[C@H]1C[N@@+]2(O)CCc3cc(OC)c(OC)cc3[C@@H]2C[C@@H]1C[C@H]1NCCc2c1[nH]c1ccc(O)cc21.O=C(O)C(F)(F)F.O=C([O-])C(F)(F)F` as the compound, how does the Activity [1] read?
A: Non-Toxic

Q: What about the Activity [2] of the same compound?
A: Non-Toxic

Q: What about the Activity (Homo sapiens) of the same compound?
A: Active

Q: Which Activity [1] does the source give for `COC1=C[C@@H]2C3=C([C@@H]2C1=O)[C@@H](NC(C)=O)CCc1cc(OC)c(OC)c(OC)c13` here?
A: Non-Toxic

Q: And the Activity [2]?
A: Non-Toxic

Q: With `CC[C@H]1C[N@@+]2(O)CCc3cc(O)c(OC)cc3[C@@H]2C[C@@H]1C[C@H]1NCCc2c1[nH]c1ccc(O)cc21.O=C(O)C(F)(F)F.O=C([O-])C(F)(F)F` as the compound, how does the Activity [1] read?
A: Non-Toxic

Q: And the Activity [2]?
A: Non-Toxic

Q: What about the Activity (Homo sapiens) of the same compound?
A: Active

Q: What does the source list for `COC1=C[C@@H]2C3=C([C@@H]2C1=O)[C@@H](NC(C)=O)CCc1cc(OC)c(O[C@@H]2O[C@H](CO)[C@@H](O)[C@H](O)[C@H]2O)c(OC)c13`?
A: Activity [1]: Non-Toxic; Activity [2]: Non-Toxic

Q: With `COC1=C[C@H]2C3=C([C@H]2C1=O)[C@@H](NC(C)=O)CCc1cc(OC)c(O[C@@H]2O[C@H](CO)[C@@H](O)[C@H](O)[C@H]2O)c(OC)c13` as the compound, how does the Activity [1] read?
A: Non-Toxic

Q: And the Activity [2]?
A: Non-Toxic

Q: Which Activity [1] does the source give for `CC[C@H]1CN2CCc3cc(OC)c(OC)cc3[C@@H]2C[C@@H]1C[C@@H]1NCCc2c1[nH]c1ccc(O)cc21.O=C(O)C(F)(F)F.O=C(O)C(F)(F)F` here?
A: Non-Toxic

Q: And the Activity [2]?
A: Non-Toxic

Q: And the Activity (Homo sapiens)?
A: Active
